In ChEMBL document CHEMBL3137667, “[Drug-induced liver injury; fourteenth updated edition of the bibliographic database of liver injuries and related drugs]” (Gastroenterol Clin Biol, 2004):

Legend:
[1] = Highest frequency of moderate liver toxicity observed during clinical trials, expressed as a percentage. [column '% BIOL' in source]; settings: human
[2] = human, serum, 4383 h
[3] = human
[4] = Times to onset, minimal and maximal, observed in the indexed observations. [column 'DELAI' in source]; settings: human
[5] = human, serum
[6] = human; remark: listed apart in the source
[7] = Highest frequency of acute liver toxicity observed during clinical trials, expressed as a percentage. [column '% AIGUE' in source]; settings: human
[8] = human; remark: listed apart in the source
[9] = human; remark: listed apart in the source
[10] = human; remark: listed apart in the source
[11] = human; remark: listed apart in the source
[12] = human; remark: listed apart in the source
[13] = human; remark: listed apart in the source
[14] = human, serum; remark: listed apart in the source
[15] = human; remark: listed apart in the source
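Wherever Hepatotoxicity (association with vascular disease) is given: count of indexed literature references reporting vascular liver injury in humans, e.g. peliosis hepatitis, hepatic veno-occlusive disease or Budd-Chiari syndrome.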
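Wherever Hepatotoxicity (benign tumour) is given: value is a count of indexed literature references citing a benign tumour confirmed by histopathology.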
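Wherever Hepatotoxicity (choleostasis) is given: human cholestatic liver injury, shown by histopathology or by peak ALT or AST elevation over alkaline phosphatase ratio below 2, value counts indexed literature reports.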
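Wherever Hepatotoxicity (chronic liver disease) is given: chronic liver injury confirmed by histopathology or persistently raised serum aminotransferase activity beyond 6 months, value given as the count of indexed literature references.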
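Wherever Hepatotoxicity (cirrhosis) is given: value is a count of indexed literature references reporting cirrhosis confirmed by histopathology.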
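Wherever Hepatotoxicity (cytolytic) is given: human cytolytic liver injury, shown by histopathology or by a ratio above 5 of peak ALT or AST elevation to alkaline phosphatase elevation, value counts indexed references.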
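Wherever Hepatotoxicity (granulomatous hepatitis) is given: value is a count of indexed literature references reporting granulomatous liver disease confirmed by histopathology.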
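Wherever Hepatotoxicity (malignant tumour) is given: malignant tumour confirmed by histopathology, value gives the count of indexed literature references reporting it.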
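Wherever Hepatotoxicity (severe hepatitis) is given: human clinical data: severe hepatitis, meaning potentially life-threatening liver failure or clinically observed cases, the value counts how many indexed literature references report it.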
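Wherever Hepatotoxicity (steatosis) is given: steatosis confirmed by histopathology, value is the count of indexed references.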

| Structure (SMILES) | Hepatotoxicity (moderate) [1] [%] | Hepatotoxicity (chronic liver disease) [2] | Hepatotoxicity (malignant tumour) [3] | Hepatotoxicity (time to onset) [4] | Hepatotoxicity (acute) [5] | Hepatotoxicity (severe hepatitis) [6] | Hepatotoxicity (acute) [7] [%] | Hepatotoxicity (cirrhosis) [8] | Hepatotoxicity (choleostasis) [9] | Hepatotoxicity (granulomatous hepatitis) [10] | Hepatotoxicity (cytolytic) [11] | Hepatotoxicity (steatosis) [12] | Hepatotoxicity (association with vascular disease) [13] | Hepatotoxicity (moderate) [14] | Hepatotoxicity (benign tumour) [15] | other results |
| --- | --- | --- | --- | --- | --- | --- | --- | --- | --- | --- | --- | --- | --- | --- | --- | --- |
| CSc1nc2cc(Cl)c(Oc3cccc(Cl)c3Cl)cc2[nH]1 [TRICLABENDAZOLE] | 0 | 0 | 0 | 3 days | 1 | 0 | 0.7 | 0 | 1 | 0 | 0 | 0 | 0 | 0 | 0 | – |
| FCOC(C(F)(F)F)C(F)(F)F [SEVOFLURANE] | 40 | 0 | 0 | 1 day - 11 days | 6 | 2 | 0 | 0 | 0 | 0 | 6 | 0 | 0 | 4 | 0 | – |
| C=CC1=C(C(=O)O)N2C(=O)[C@@H](NC(=O)/C(=N\OCC(=O)O)c3csc(N)n3)[C@H]2SC1 [CEFIXIME] | 33.3 | 0 | 0 | 2 days | 1 | 0 | 0 | 0 | 1 | 0 | 0 | 0 | 0 | 37 | 0 | – |
| COc1ccnc(C[S+]([O-])c2nc3ccc(OC(F)F)cc3[nH]2)c1OC (stereo not drawn) [PANTOPRAZOLE] | 8.3 | 0 | 0 | 2 days - 8 days | 2 | 1 | 0 | 0 | 0 | 0 | 2 | 0 | 0 | 13 | 0 | – |
| C[C@@H](c1ncncc1F)[C@](O)(Cn1cncn1)c1ccc(F)cc1F [VORICONAZOLE] | 9.5 | 0 | 0 | 1 day - 1 year | – | 1 | 0 | 0 | 1 | 0 | 1 | 0 | 0 | 10 | 0 | – |
| O=C(NCC1CCCCN1)c1cc(OCC(F)(F)F)ccc1OCC(F)(F)F (stereo not drawn) [FLECAINIDE] | 36.7 | 0 | 0 | 2 days - 1 month | – | 0 | 0 | 0 | 2 | 0 | 1 | 0 | 0 | 3 | 0 | – |
| CC(C(=O)O)c1cccc(C(=O)c2ccccc2)c1 (stereo not drawn) [KETOPROFEN] | 2.5 | 0 | 0 | 2 days - 2 weeks | – | 2 | 0 | 0 | 5 | 0 | 3 | 3 | 0 | 3 | 0 | – |
| CC(C)n1c(/C=C/C(O)CC(O)CC(=O)O)c(-c2ccc(F)cc2)c2ccccc21 (stereo not drawn) [FLUVASTATIN] | – | 0 | 0 | 8 months | – | – | – | 0 | – | – | – | 0 | 0 | 36 | 0 | Hepatotoxicity (moderate) ([1]; Liver): 55%; Hepatotoxicity (severe hepatitis) ([6]; Liver): 0; Hepatotoxicity (acute) ([7]; Liver): 1.2%; Hepatotoxicity (choleostasis) ([9]; Liver): 2; Hepatotoxicity (granulomatous hepatitis) ([10]; Liver): 0; Hepatotoxicity (cytolytic) ([11]; Liver): 3 |
| COc1cc2c(cc1OC)C(=O)C(CC1CCN(Cc3ccccc3)CC1)C2 (stereo not drawn) [DONEPEZIL] | 0 | 0 | 0 | 10 days - 12 days | 2 | 0 | 0 | 0 | 2 | 0 | 0 | 0 | – | 0 | 0 | – |
| CN(C)CCCC1(c2ccc(F)cc2)OCc2cc(C#N)ccc21 (stereo not drawn) [CITALOPRAM] | 5.3 | 0 | 0 | 4 weeks - 2 months | – | 1 | 0 | 0 | 1 | 0 | 1 | 0 | 0 | 2 | 0 | – |
| Cc1nnc2n1-c1ccc(Cl)cc1C(c1ccccc1Cl)=NC2 [TRIAZOLAM] | – | 0 | 0 | 4 months | – | – | – | 0 | 2 | 0 | 1 | 0 | 0 | 1 | 0 | Hepatotoxicity (moderate) ([1]; Liver): 0%; Hepatotoxicity (severe hepatitis) ([6]; Liver): 2 |
| COC(=O)C1=C(C)NC(C)=C(C(=O)OCCN(C)Cc2ccccc2)C1c1cccc([N+](=O)[O-])c1 (stereo not drawn) [NICARDIPINE] | 6.7 | 0 | 0 | 2 months | – | 0 | 0 | 0 | 0 | 0 | 0 | 1 | 0 | 6 | 0 | – |
| COCc1c(C(C)C)nc(C(C)C)c(/C=C/[C@@H](O)C[C@@H](O)CC(=O)O)c1-c1ccc(F)cc1 [CERIVASTATIN] | – | 0 | 0 | 3 weeks | – | – | – | 0 | 1 | 0 | 1 | 0 | 0 | – | 0 | – |
| O=C(O)CCc1nc(-c2ccccc2)c(-c2ccccc2)o1 [OXAPROZIN] | 20 | 0 | 0 | 2 weeks - 6 months | – | 1 | 0.1 | 0 | 0 | 0 | 2 | 0 | 0 | 4 | 0 | – |
| Cc1ccc(NC(=O)c2ccc(CN3CCN(C)CC3)cc2)cc1Nc1nccc(-c2cccnc2)n1 [IMATINIB] | – | 0 | 0 | 11 days - 12 days | – | – | – | 0 | 0 | 0 | 1 | 0 | 0 | 5 | 0 | Hepatotoxicity (moderate) ([1]; Liver): 100%; Hepatotoxicity (severe hepatitis) ([6]; Liver): 1 |
